Test results from PMC10823475, “Design, Synthesis, and Evaluation of Inhibitors of Hedgehog Acyltransferase” (Journal of Medicinal Chemistry, 2024).

Assays:
[1] = MTS assay, cytotoxicity (72 h); format: cell-based; conditions: human, HEK293a SHH+ cells, 72 h; for CC50 at 72 h: read-out: MTS Assay (HEK293a SHH+) CC50 (CI95)
Procedure: (§1) The survival of HEK293a SHH^+ cells is independent of HH signaling,[35] therefore, the cytotoxicity of analogues was tested using the MTS assay to investigate off-target toxicity. In this assay, HEK293a SHH^+ cells were treated with DMSO vehicle or varying concentrations of analogues for 72 h. Subsequently, a mixture of 1-methoxy phenazine methosulfate (PMS) and [3-(4,5-dimethylthiazol-2-yl)-5-(3-carboxymethoxyphenyl)-2-(4-sulfophenyl)-2H-tetrazolium] (MTS) was added to enable quantification of cell number via colorimetric analysis. […] Compounds 3, 17, 19, 32, 34, 38, and 45, which all contain a 2-((2-methylbutyl)amino)acetyl, were toxic to HEK293a SHH^+ cells, as were ureas 26, 40, and 41.
(§2) HEK293a SHH^+ cells were plated at 5000 cells/well in a 96-well plate (Nunc) using a volume of 50 μL/well and cultured for 24 h as described. Cells were treated with 100 μL/well of either DMSO vehicle, Puromycin (2 μg/mL), or stated analogues (0.14–100 μM final) in DMEM supplemented with 10% FBS. After 72 h, 20 μL/well of a mixture of 1-methoxy phenazine methosulfate (PMS) and [3-(4,5-dimethylthiazol-2-yl)-5-(3-carboxymethoxyphenyl)-2-(4-sulfophenyl)-2H-tetrazolium] (MTS) at a ratio of MTS/PMS = 2/0.92 mg/mL in PBS was added and the plates were incubated for 3 h at 37 °C. Subsequently, the absorption at 490 nm was recorded using an EnVision Xcite 2104 (PerkinElmer), and the response was normalized to vehicle control and Puromycin treated samples. Dose response curves were fitted to a “sigmoidal dose response (variable slope)” model using GraphPad Prism 5 (GraphPad Software, Inc.).

[2] = tested on: HEK293a SHH+ cells; assay: MTS assay, cytotoxicity (72 h); format: cell-based; conditions: for decrease in cell viability / cell survival: 12.5 μM; for CC50: 72 h, read-out: MTS Assay (HEK293a SHH+) CC50 (CI95)
Procedure: as §1, §2

[3] = tested on: HH signaling (HEK293a SHH+ conditioned media on SHH-Light2 cells); assay: Light2 dual-luciferase cell-based HH signaling assay (Firefly); conditions: Firefly luciferase, Light2 cells; read-out: HH signaling inhibition EC50 (CI95)
Procedure: Subsequently, the effect of analogues on HH signaling was investigated using a cellular luciferase reporter assay. Light2 cells derived from NIH3T3 cells constitutively express Renilla luciferase as an internal control for cell density alongside Firefly luciferase under the control of a HH-responsive Gli promoter.[43] HEK293a SHH^+ cells were incubated with varying inhibitor concentrations and SHH-containing conditioned media transferred to the NIH3T3-Light2 cells to mimic paracrine signaling[30],[35] (Figure 6A).
The Light2 cell-based signaling assay has been described previously.[35] Briefly, HEK293a SHH^+ cells were plated at 120,000 cells/well of a 12-well plate in a volume of 1 mL/well and cultured as described above. After 24 h, cells were washed with PBS, followed by addition of 1 mL of media containing 0.2% DMSO or varying inhibitor concentrations in DMSO (0.041–30 μM final). Additionally, SHH-Light2 cells were plated at 20,000 cells/well of a 96-well plate in 50 μL media. After another 24 h, 300 μL of the conditioned media were collected from each well of the treated HEK293a SHH^+ cells, centrifuged at 1000g for 10 min to remove detached cells and split into three wells of the SHH-Light2 cells (100 μL/well; 150 μL final volume in each well). The treated Light2 cells were cultured for another 48 h and subsequently washed with PBS. Firefly and Renilla luciferase activity was measured using the Dual-Luciferase reporter system (Promega Corporation, USA). Then 20 μL of 1× passive lysis buffer were added to each well. After 30 min at RT, 5 μL of each lysate were transferred to a white opaque 96-well plate. Then 20 μL/well of luciferase assay reagent II was added and the luminescence immediately recorded using a SpectraMax i3x plate reader (Molecular Devices LLC). Subsequently, 20 μL/well of 1× Stop&Glo substrate in Stop&Glo buffer was added and the luminescence immediately recorded for a second time. Data was evaluated using a “sigmoidal dose response (variable slope)” model in GraphPad Prism 5 (GraphPad Software, Inc.). The luminescence signal of the Firefly luciferase was normalized to the DMSO vehicle (100%) and the unconditioned media (0%) controls.

[4] = target: T1, purified HHAT (Homo sapiens, UniProt Q5VTY9); assay: Acyl-cLIP assay, inhibition of purified HHAT; format: biochemical; conditions: for fold increase in potency compared to racemate: enantiomer vs racemate (29 vs 21, 30 vs 24, 43 vs 39); for LLEAcyl-cLIP: from Acyl-cLIP IC50 and clogDpH7.4; for IC50: purified HHAT, read-out: Acyl-cLIP Assay IC50 (CI95)
T1 construct: made in house
T1 sequence (Q5VTY9 whole entry): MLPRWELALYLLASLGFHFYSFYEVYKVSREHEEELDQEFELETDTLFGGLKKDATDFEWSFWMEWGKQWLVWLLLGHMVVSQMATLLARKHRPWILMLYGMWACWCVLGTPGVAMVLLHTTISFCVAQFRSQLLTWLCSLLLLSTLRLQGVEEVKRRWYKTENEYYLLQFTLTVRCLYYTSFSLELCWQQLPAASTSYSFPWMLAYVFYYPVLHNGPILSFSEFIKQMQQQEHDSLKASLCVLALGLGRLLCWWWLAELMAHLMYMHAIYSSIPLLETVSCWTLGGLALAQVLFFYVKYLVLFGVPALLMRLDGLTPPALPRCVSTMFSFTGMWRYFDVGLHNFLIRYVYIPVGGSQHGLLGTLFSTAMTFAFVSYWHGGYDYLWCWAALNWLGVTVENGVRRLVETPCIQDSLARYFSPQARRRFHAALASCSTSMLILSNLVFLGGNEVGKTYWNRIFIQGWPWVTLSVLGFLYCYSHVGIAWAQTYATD
Procedure: The inhibitory potency of all 50 compounds against purified HHAT was quantified using the acylation-coupled lipophilic induction of polarization (acyl-cLIP) assay recently developed in our lab, a universally applicable assay for high-throughput analysis of protein–lipid transferases and hydrolases.[31],[40] In brief, in this assay a fluorescently labeled peptide based on the N-terminal sequence of SHH is incubated with N-dodecyl β-D-maltoside (DDM) solubilized purified HHAT, palmitoyl-CoA, and HHAT inhibitors. Binding of the lipidated peptide product to the DDM micelle results in decreased tumbling rate and an increase in polarization of fluorescence emission, enabling facile quantification of HHAT activity. Initially, % HHAT inhibition was determined at 50 μM and 25 μM for all analogues. […] HHAT is a 12-pass TM protein,[14] and we considered whether lipophilicity might bias inhibition; pIC50 values were compared to calculated log D, which indicated no significant correlation (SI, Table S1 and Figure S2). We concluded that lipophilicity is not a general driver of HHAT inhibitory potency.
The acyl-cLIP assay has been described previously.[40] Briefly, SHH-FAM peptide was diluted in buffer A (100 mM MES, 20 mM NaCl, 1 mM DTT, 1 mM TCEP, 0.1% BSA, pH 6.5) to a concentration of 2 μM. Palmitoyl-CoA (Sigma-Aldrich) was diluted in buffer A to 7.5 μM and recombinant HHAT (obtained by following the published protocol[14]) in buffer B (20 mM HEPES, 350 mM NaCl, 1% DDM, 5% glycerol, pH 7.3) diluted to 44 μg/mL. 1.5 μL of a 50 mM inhibitor DMSO stock was diluted with 18.5 μL of DMSO and further serial diluted (1:1). For each condition, 6 μL of the HHAT working stock and […] of the SHH-peptide working stock were mixed with 3 μL of the corresponding inhibitor concentration or DMSO vehicle. Twelve μL/well of this mixture was split into four wells of a black 384 well plate. To start the reaction, 8 μL of the Pal-CoA working stock were added to each well and fluorescence anisotropy and the total fluorescence recorded on an EnVision Xcite 2104 (PerkinElmer) over 30 min (emission filter 1 = FITC FP P-pol 535; emission filter 2 = FITC S-pol 535; excitation filter: FITC FP 480; measurement height = 6.5 mm; detector gain = 0; high concentration gain). Initial rate constants were determined by linear regression and normalized to DMSO control and samples with buffer B instead of HHAT. IC50 values were extracted from the corresponding dose response curves using a “sigmoidal dose response (variable slope)” model in GraphPad Prism 5 (GraphPad Software, Inc.).

| SMILES | CC50 at 72 h [1] [µM] | viability at 72 h, 12.5 µM [1] [%] | viability at 72 h, 25 µM [1] [%] | decrease in cell viability / cell survival [2] [%] | CC50 [2] [µM] | EC50 [3] [nM] | inhibition at 25 µM [4] [%] | inhibition at 50 µM [4] [%] | fold increase in potency compared to racemate [4] [fold] | LLEAcyl-cLIP [4] | IC50 [4] [µM] | toxicity to HEK293a SHH+ cells [2] |
| --- | --- | --- | --- | --- | --- | --- | --- | --- | --- | --- | --- | --- |
| CC(C)CNCC(=O)N1CCc2ccccc2C1c1ccccc1 (stereo in doubt) [Compound 43, (R)-2-((2-Methylpropyl)amino)-1-(1-phenyl-3,4-dihydroisoquinolin-2(1H)-yl)ethan-1-one] | > 50 | 98 ± 2 | 97 ± 3 | < 30 | > 100 | 800 | 88 ± 3 | 93 ± 3 | 2 | 3.64 | 2.77 |  |
| C=CCNCC(=O)N1CCc2sccc2C1c1ccccc1 (stereo not shown) [Compound 12, 2-(Allylamino)-1-(4-phenyl-6,7-dihydrothieno[3,2-c]pyridin-5(4H)-yl)ethan-1-one] | > 50 | 86 ± 2 | 73 ± 2 | < 30 |  | 2920 | 68 ± 5 | 83 ± 1 |  | 2.94 | 6.55 |  |
| CCC(C)CNCC(=O)N1CCc2sccc2C1c1ccccn1 (stereo not shown) [Compound 19, 2-(2-Methylbutylamino)-1-[4-(pyridin-2-yl)-6,7-dihydro-4H-thieno[3,2-c]pyridin-5-yl]ethanone] | 20.3 | 87 ± 1 | 75 ± 4 | < 30 |  | 580 | 81 ± 1 | 91 ± 1 |  | 3.84 | 7.98 | toxic |
| CC[C@H](C)CNCC(=O)N1CCc2sccc2C1c1cccc(C)n1 (stereo partly shown) [Compound 23] | > 50 | 87 ± 2 | 74 ± 3 |  | > 100 | 1580 | 87 ± 7 | 86 ± 8 |  | 4.04 | 3.71 |  |
| CC(=O)N1CCc2sccc2[C@@H]1c1cccc(C)n1 [Compound 29, (R)-1-(4-(6-Methylpyridin-2-yl)-6,7-dihydrothieno[3,2-c]pyridin-5(4H)-yl)ethan-1-one] | > 50 | 92 ± 3 | 88 ± 5 | < 30 | > 100 | 1290 | 76 ± 2 | 86 ± 2 | 2 | 3.10 | 7.45 |  |
| CCC(C)CNCC(=O)N1CCc2sccc2C1c1ccccc1OC (stereo not shown) [Compound 32, 1-(4-(2-Methoxyphenyl)-6,7-dihydrothieno[3,2-c]pyridin-5(4H)-yl)-2-((2-methylbutyl)amino)ethan-1-one] | 7.6 | 55 ± 3 | 42 ± 2 |  |  | > 30000 | 66 ± 2 | 79 ± 2 |  | 3.00 | 8.09 | toxic |
| CC(C)CNCC(=O)N1CCc2ccccc2C1c1ccccc1 (stereo not shown) [Compound 39, 2-((2-Methylpropyl)amino)-1-(1-phenyl-3,4-dihydroisoquinolin-2(1H)-yl)ethan-1-one] | > 50 | 94 ± 3 | 92 ± 4 | < 30 | > 100 | 2590 | 81 ± 2 | 86 ± 1 |  | 3.30 | 6.02 |  |
| CCC(C)CNCC(=O)N1CCc2ccc(Cl)cc2C1c1ccccc1 (stereo not shown) [Compound 45, 1-(7-Chloro-1-phenyl-3,4-dihydroisoquinolin-2(1H)-yl)-2-((2-methylbutyl)amino)ethan-1-one] | 15.4 | 70 ± 3 | 14 ± 4 | < 30 |  | 6440 | 89 ± 3 | 93 ± 3 |  | 2.43 | 4.22 | toxic |
